Laboratory results from PMC12284513, “Unique structural features define the decarboxylation activity of a CYP152 fatty acid decarboxylase from Lacicoccus alkaliphilus” (The Journal of Biological Chemistry, 2025).
“And” between values parts separate entries of the source, which are not always exact repeats. Equal values may be shown once. Read-outs that look alike come from different tables or passages of the source.

Assays:
OleTJE L176I = assay: Fatty acid bioconversion with H2O2 as co-substrate (alkene by GC-MS, hydroxy products by HPLC-MS); type: biochemical, Jeotgalicoccus sp. 8456; conditions: 200 μM substrate, 400 μM H2O2
Description: A reaction was typically quenched by adding 2-fold reaction volume of ethyl acetate which contained 30 μM of tetradecane as an internal standard. The reaction mixtures were vortexed for 1 min and then centrifuged at 12,000 rpm, 4 °C for 10 min to separate an organic and an aqueous phase. The organic phase was injected into an Agilent gas chromatography system (GC-MS) (Agilent 7890B equipped with Agilent 5977B MSD) equipped with a HP5-MS column (30 m × 0.25 mm × […]) (Agilent), and helium was used as a carrier gas. The oven conditions for C10FA and 1-nonene (C9 alkene) were ramped up from 60 to 240 °C with a rate of 19 ° C min^−1 and held at 240 °C for 1 min. […] For C18FA and 1-heptadecene (C17 alkene), the oven was ramped up from 60 to 250 °C with a rate of 22 °C min^−1 and hold at 250 °C for 4 min. For C20FA and 1-nonadecene (C19 alkene), the oven was ramped up from 100 to 250 °C with a rate of 23 °C min^−1 and held at 250 °C for 6 min. The response of target compounds was normalized with signals of the internal standard. The concentration of each compound was calculated based on a standard calibration curve.
For analyzing hydroxylated products of fatty acids, the reactions were quenched by adding an equal volume of acetonitrile, centrifuged, and filtrated. The analytes (10 μl) were injected into a liquid chromatography coupled with diode array and single quadrupole mass spectroscopy detection (LC-DAD/MS) (Agilent 1290 Infinity II LC System equipped with DAD, Single Quadrupole Mass Spectrometers system). A Zorbax eclipse plus C18 column (5 μm, 4.6 × 250 mm) (Agilent Technology) was used for separation. The mobile phase system A was water with 0.1% (v/v) formic acid, and system B was acetonitrile with 0.1% (v/v) formic acid.
All fatty acids were prepared in absolute EtOH at 20 mM as stock solutions. The reaction was carried out in 50 mM NaH2PO4 buffer with 300 mM NaCl, pH 7.5, with 2.5 or 10% (v/v) of EtOH, 200 μM of a substrate, and 400 μM of H2O2. The reactions were performed at 25 °C for 1 h, and then the alkene product was measured using GC-MS after the reactions were quenched and extracted with two-fold volume of ethyl acetate.
(§1) Site-directed mutagenesis of I178L of OleTLA and […] of OleTJE was done with overlaping PCR that used OleTLA or OleTJE plasmids as templates (Table S4). The PCR products were treated with DpnI in cut smart buffer at 37 °C for 16 h, transformed into E. coli XL−1 blue competent cells and grown at 37 °C on LB agar containing 50 μg/ml ampicillin. The plasmids of selected colonies were extracted for sequence verification. The plasmid containing the correct sequence was transformed into E. coli BL21 (DE3) for enzyme expression. The expression and purification methods of variants were the same as those of wild-type OleTLA and OleTJE.

OleTJE [1] = target: T1, OleTJE (Jeotgalicoccus sp. ATCC 8456, UniProt E9NSU2); parameters: method as in PMID 28276499; conditions: C14FA decarboxylation; cited from earlier work
T1 sequence (E9NSU2 1-422): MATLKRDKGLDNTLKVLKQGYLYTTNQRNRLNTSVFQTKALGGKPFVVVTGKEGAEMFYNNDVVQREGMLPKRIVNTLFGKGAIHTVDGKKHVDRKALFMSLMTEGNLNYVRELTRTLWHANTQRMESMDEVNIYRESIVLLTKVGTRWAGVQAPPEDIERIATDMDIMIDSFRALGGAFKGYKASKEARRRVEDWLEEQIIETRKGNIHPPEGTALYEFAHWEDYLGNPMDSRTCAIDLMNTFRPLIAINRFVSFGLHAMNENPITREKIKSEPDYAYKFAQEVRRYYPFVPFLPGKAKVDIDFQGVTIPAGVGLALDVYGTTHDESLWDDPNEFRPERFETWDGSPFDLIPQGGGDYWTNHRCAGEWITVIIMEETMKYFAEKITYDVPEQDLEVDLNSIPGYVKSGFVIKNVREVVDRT

OleTJE [2] = target: T1, OleTJE; assay: Steady-state kinetics of C16FA decarboxylation with H2O2, C15 alkene by GC-MS; type: biochemical, Jeotgalicoccus sp. 8456; conditions: for Km / kcat: 400 μM H2O2, pH 7.5, 25 °C
Description: (§2) Under specific times between 0.1 to 2 min, the reaction samples were taken and quenched by adding an equal volume of ethyl acetate. The ethyl acetate layer would contain the C15 alkene product, which was measured using GC-MS. Values of initial rates were plotted against substrate concentrations to analyze for Km and Vmax values using the Michaelis–Menten equation by GraphPad Prism software version 10.

OleTLA [3] = target: T2, OleTLA (Lacicoccus alkaliphilus, UniProt A0A1M7CBV6); assay: Equilibrium substrate binding by heme spectral change (absorbance at 390 nm); conditions: read-out: Kd from absorbance changes at 390 nm
T2 sequence (A0A1M7CBV6 1-424): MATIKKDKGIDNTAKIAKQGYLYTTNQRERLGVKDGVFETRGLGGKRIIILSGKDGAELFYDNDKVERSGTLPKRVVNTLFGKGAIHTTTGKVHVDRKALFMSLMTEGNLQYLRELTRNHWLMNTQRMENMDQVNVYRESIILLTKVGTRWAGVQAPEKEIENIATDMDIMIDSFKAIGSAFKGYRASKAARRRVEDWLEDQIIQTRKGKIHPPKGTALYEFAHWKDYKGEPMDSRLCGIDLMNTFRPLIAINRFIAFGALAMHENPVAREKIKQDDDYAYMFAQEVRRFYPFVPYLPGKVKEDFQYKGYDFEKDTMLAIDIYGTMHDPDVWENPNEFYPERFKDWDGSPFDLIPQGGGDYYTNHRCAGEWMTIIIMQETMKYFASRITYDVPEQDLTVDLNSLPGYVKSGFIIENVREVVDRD

OleTLA [4] = target: T2, OleTLA; assay: Substrate binding by isothermal titration calorimetry (ITC); conditions: pH 7.5, 25 °C
Description: (§3) The enzyme solution was filled into a syringe while the C16FA solution was filled into the ITC cell. The reactions were constantly stirred at 750 rpm while controlling the temperature at 25 °C during titration. A total of 19 enzyme injections were added into the substrate solution. […] For the other 18 injections, 2 μl of the enzyme solution was added with […] to ensure that the conditions are under equilibrium. The data were processed and analyzed using the Microcal PEAQ-ITC analysis software to calculate the Kd value based on a single-site binding model.

OleTLA [5] = target: T2, OleTLA; assay: Steady-state kinetics of C16FA decarboxylation with H2O2, C15 alkene by GC-MS; type: biochemical; conditions: for kcat / Km: 400 μM H2O2, pH 7.5, 25 °C
Description: as §2

OleTJE [6] = target: T1, OleTJE; assay: Substrate binding by isothermal titration calorimetry (ITC); parameters: species or system Jeotgalicoccus sp. 8456; conditions: pH 7.5, 25 °C
Description: as §3, with “The” for “The enzyme solution was filled into a syringe while the C16FA solution was filled into the ITC cell. The”

OleTLA I178L = OleTLA I178L (Lacicoccus alkaliphilus, UniProt A0A1M7CBV6, I178L); assay: Steady-state kinetics of C16FA decarboxylation with H2O2, C15 alkene by GC-MS; type: biochemical; conditions: 10% (v/v) EtOH, 400 μM H2O2, pH 7.5, 25 °C
Description: as §2, §1

For `CCCCCCCCCCCCCC(=O)O` [C14FA, tetradecanoic acid], which “Decarboxylation activity of OleTJE L176I compared to that of OleTJE wild type” value (OleTJE L176I) is on record?
The value was “less than 1%”.

What about the kcat (OleTJE [1]) of the same molecule?
Its kcat is 1.18 s⁻¹.

For `CCCCCCCCCCCCCCCC(=O)O` [C16FA, hexadecanoic acid], which “Enhancement of kcat in 10% (v/v) EtOH compared to 2.5% (v/v) EtOH” value (OleTJE [2]) is on record?
The value was about 1.4 fold.

What about the Km (OleTJE [2]; 2.5% (v/v) EtOH) of the same molecule?
Its Km is 8.6 ± 1.4 µM.

And the kcat (OleTJE [2]; 2.5% (v/v) EtOH)?
Its kcat is 0.647 ± 0.015 s⁻¹.

What about the Km (OleTJE [2]; 10% (v/v) EtOH) of the same molecule?
Its Km is 9.6 ± 0.6 µM.

What about the kcat (OleTJE [2]; 10% (v/v) EtOH) of the same molecule?
The kcat was 0.918 ± 0.0033 s⁻¹.

What about the Kd (OleTLA [3]; 2.5% (v/v) EtOH) of the same molecule?
The Kd was 0.32 µM.

What about the Kd (OleTLA [3]; 10% (v/v) EtOH) of the same molecule?
The Kd was 0.53 µM.

What about the Kd (OleTLA [3]; buffer (0% (v/v) EtOH)) of the same molecule?
The Kd was 0.37 µM.

What about the “Decarboxylation activity of OleTJE L176I compared to that of OleTJE wild type” value (OleTJE L176I) of the same molecule?
The value was “less than 5%”.

And the Kd (OleTLA [4]; 2.5% (v/v) EtOH)?
The Kd was 0.95 ± 0.14 µM.

What about the TΔS (OleTLA [4]; 2.5% (v/v) EtOH) of the same molecule?
Its TΔS is 159.4 ± 11.1 kJ/mol.

And the ΔG (OleTLA [4]; 2.5% (v/v) EtOH)?
The ΔG was -34.4 ± 0.33 kJ/mol.

What about the ΔH (OleTLA [4]; 2.5% (v/v) EtOH) of the same molecule?
Its ΔH is 125.4 kJ/mol and 125.4 ± 12.3 kJ/mol.

And the Kd (OleTLA [4]; 10% (v/v) EtOH)?
Its Kd is 1.26 ± 0.23 µM.

What about the TΔS (OleTLA [4]; 10% (v/v) EtOH) of the same molecule?
Its TΔS is 246.6 ± 8.37 kJ/mol.

And the ΔG (OleTLA [4]; 10% (v/v) EtOH)?
The ΔG was -33.7 ± 0.46 kJ/mol.

What about the ΔH (OleTLA [4]; 10% (v/v) EtOH) of the same molecule?
Its ΔH is 212.7 kJ/mol and 212.7 ± 8.79 kJ/mol.

And the “Enhancement of kcat in 10% (v/v) EtOH compared to 2.5% (v/v) EtOH” value (OleTLA [5])?
Its value is “around 4.3 fold”.

And the kcat (OleTLA [5]; 2.5% (v/v) EtOH)?
The kcat was 0.343 ± 0.0083 s⁻¹.

What about the Km (OleTLA [5]; 2.5% (v/v) EtOH, read-out: KM) of the same molecule?
Its Km is 5.4 ± 0.6 µM.

What about the Km (OleTLA [5]; 10% (v/v) EtOH) of the same molecule?
Its Km is 16.7 ± 0.6 µM.

What about the kcat (OleTLA [5]; 10% (v/v) EtOH) of the same molecule?
The kcat was 1.47 ± 0.0267 s⁻¹.

And the Kd (OleTJE [6]; 2.5% (v/v) EtOH)?
The Kd was 1.93 ± 0.16 µM.

And the TΔS (OleTJE [6]; 2.5% (v/v) EtOH)?
Its TΔS is 67.49 ± 9 kJ/mol.

What about the ΔG (OleTJE [6]; 2.5% (v/v) EtOH) of the same molecule?
The ΔG was -32.6 ± 0.21 kJ/mol.

And the Kd (OleTJE [6]; 10% (v/v) EtOH)?
The Kd was 0.44 ± 0.01 µM.

And the TΔS (OleTJE [6]; 10% (v/v) EtOH)?
The TΔS was -21.5 ± 11.5 kJ/mol.

What about the ΔG (OleTJE [6]; 10% (v/v) EtOH) of the same molecule?
Its ΔG is -36.3 ± 0.042 kJ/mol.

What about the ΔH (OleTJE [6]; 10% (v/v) EtOH) of the same molecule?
Its ΔH is -51 ± 21.4 kJ/mol.

And the Km (OleTLA I178L)?
The Km was 25 ± 0.6 µM.

And the kcat (OleTLA I178L)?
The kcat was 1.6 ± 0.0417 s⁻¹.
